# Tested on: 12 single or co-culture in vitro tissue models of primary cells
# Assay: Culture/co-culture cell model panel, extracellular biomarkers (DiscoveRx); for CCL2/MCP-1: reference of the scale not given here; for CD141/Thrombomodulin: reference of the scale not given here; for CD142/Tissue Factor: reference of the scale not given here; for CD38: reference of the scale not given here; for CD40: reference of the scale not given here; for CD69: reference of the scale not given here; for CXCL8/IL-8: reference of the scale not given here; for CXCL9/MIG: reference of the scale not given here; for IL-1alpha: reference of the scale not given here; for M-CSF: reference of the scale not given here; for PBMC Cytotoxicity: reference of the scale not given here; for Proliferation: reference of the scale not given here; for SRB: reference of the scale not given here; for sPGE2: reference of the scale not given here; for sTNF-alpha: reference of the scale not given here
# Type: cell-based, human
smiles,measurement,setting,value
Cc1n[nH]c2ncc(C(=O)N3CCC[C@H]3c3ccc(Cl)cc3)cc12 [CMPD4],IL-1alpha,"LPS Huvec+PBMC, 1.11E3 nM",0.016
same,M-CSF,"LPS Huvec+PBMC, 1.11E3 nM",0.016
same,SRB,"LPS Huvec+PBMC, 1.11E3 nM",-0.126
same,sPGE2,"LPS Huvec+PBMC, 1.11E3 nM",0.239
same,sTNF-alpha,"LPS Huvec+PBMC, 1.11E3 nM",0.133
same,CCL2/MCP-1,"LPS Huvec+PBMC, 1.23E2 nM",-0.026
same,CD40,"LPS Huvec+PBMC, 1.23E2 nM",-0.152
same,CD62E/E-Selectin,"LPS Huvec+PBMC, 1.23E2 nM",0.006
same,CD69,"LPS Huvec+PBMC, 1.23E2 nM",0.00187
same,CD106/VCAM-1,"LPS Huvec+PBMC, 1.23E2 nM",0.093
same,CD141/Thrombomodulin,"LPS Huvec+PBMC, 1.23E2 nM",0.087
same,CD142/Tissue Factor,"LPS Huvec+PBMC, 1.23E2 nM",0.139
same,CXCL8/IL-8,"LPS Huvec+PBMC, 1.23E2 nM",-0.075
same,IL-1alpha,"LPS Huvec+PBMC, 1.23E2 nM",0.044
same,M-CSF,"LPS Huvec+PBMC, 1.23E2 nM",-0.000401
same,SRB,"LPS Huvec+PBMC, 1.23E2 nM",-0.089
same,sPGE2,"LPS Huvec+PBMC, 1.23E2 nM",0.245
same,sTNF-alpha,"LPS Huvec+PBMC, 1.23E2 nM",0.048
same,CCL2/MCP-1,"LPS Huvec+PBMC, 1.37E1 nM",0.005
same,CD40,"LPS Huvec+PBMC, 1.37E1 nM",-0.187
same,CD62E/E-Selectin,"LPS Huvec+PBMC, 1.37E1 nM",-0.020
same,CD69,"LPS Huvec+PBMC, 1.37E1 nM",-0.009
same,CD106/VCAM-1,"LPS Huvec+PBMC, 1.37E1 nM",0.066
same,CD141/Thrombomodulin,"LPS Huvec+PBMC, 1.37E1 nM",0.056
same,CD142/Tissue Factor,"LPS Huvec+PBMC, 1.37E1 nM",0.073
same,CXCL8/IL-8,"LPS Huvec+PBMC, 1.37E1 nM",-0.037
same,IL-1alpha,"LPS Huvec+PBMC, 1.37E1 nM",-0.072
same,M-CSF,"LPS Huvec+PBMC, 1.37E1 nM",0.00323
same,SRB,"LPS Huvec+PBMC, 1.37E1 nM",-0.040
same,sPGE2,"LPS Huvec+PBMC, 1.37E1 nM",0.171
same,sTNF-alpha,"LPS Huvec+PBMC, 1.37E1 nM",0.038
same,CCL2/MCP-1,"LPS Huvec+PBMC, 3.33E3 nM",-0.067
same,CD40,"LPS Huvec+PBMC, 3.33E3 nM",-0.112
same,CD62E/E-Selectin,"LPS Huvec+PBMC, 3.33E3 nM",0.00461
same,CD69,"LPS Huvec+PBMC, 3.33E3 nM",0.059
same,CD106/VCAM-1,"LPS Huvec+PBMC, 3.33E3 nM",0.096
same,CD141/Thrombomodulin,"LPS Huvec+PBMC, 3.33E3 nM",0.075
same,CD142/Tissue Factor,"LPS Huvec+PBMC, 3.33E3 nM",0.108
same,CXCL8/IL-8,"LPS Huvec+PBMC, 3.33E3 nM",-0.193
same,IL-1alpha,"LPS Huvec+PBMC, 3.33E3 nM",0.066
same,M-CSF,"LPS Huvec+PBMC, 3.33E3 nM",0.023
same,SRB,"LPS Huvec+PBMC, 3.33E3 nM",-0.130
same,sPGE2,"LPS Huvec+PBMC, 3.33E3 nM",0.179
same,sTNF-alpha,"LPS Huvec+PBMC, 3.33E3 nM",0.057
same,CCL2/MCP-1,"LPS Huvec+PBMC, 3.70E2 nM",-0.029
same,CD40,"LPS Huvec+PBMC, 3.70E2 nM",-0.162
same,CD62E/E-Selectin,"LPS Huvec+PBMC, 3.70E2 nM",-0.010
same,CD69,"LPS Huvec+PBMC, 3.70E2 nM",0.00559
same,CD106/VCAM-1,"LPS Huvec+PBMC, 3.70E2 nM",0.093
same,CD141/Thrombomodulin,"LPS Huvec+PBMC, 3.70E2 nM",0.092
same,CD142/Tissue Factor,"LPS Huvec+PBMC, 3.70E2 nM",0.144
same,CXCL8/IL-8,"LPS Huvec+PBMC, 3.70E2 nM",-0.137
same,IL-1alpha,"LPS Huvec+PBMC, 3.70E2 nM",0.044
same,M-CSF,"LPS Huvec+PBMC, 3.70E2 nM",-0.012
same,SRB,"LPS Huvec+PBMC, 3.70E2 nM",-0.096
same,sPGE2,"LPS Huvec+PBMC, 3.70E2 nM",0.189
same,sTNF-alpha,"LPS Huvec+PBMC, 3.70E2 nM",0.099
same,CCL2/MCP-1,"LPS Huvec+PBMC, 4.12E1 nM",-0.00282
same,CD40,"LPS Huvec+PBMC, 4.12E1 nM",-0.180
same,CD62E/E-Selectin,"LPS Huvec+PBMC, 4.12E1 nM",-0.032
same,CD69,"LPS Huvec+PBMC, 4.12E1 nM",0.017
same,CD106/VCAM-1,"LPS Huvec+PBMC, 4.12E1 nM",0.090
same,CD141/Thrombomodulin,"LPS Huvec+PBMC, 4.12E1 nM",0.090
same,CD142/Tissue Factor,"LPS Huvec+PBMC, 4.12E1 nM",0.115
same,CXCL8/IL-8,"LPS Huvec+PBMC, 4.12E1 nM",-0.044
same,IL-1alpha,"LPS Huvec+PBMC, 4.12E1 nM",0.017
same,M-CSF,"LPS Huvec+PBMC, 4.12E1 nM",-0.0023
same,SRB,"LPS Huvec+PBMC, 4.12E1 nM",-0.053
same,sPGE2,"LPS Huvec+PBMC, 4.12E1 nM",0.230
same,sTNF-alpha,"LPS Huvec+PBMC, 4.12E1 nM",0.081
same,CCL2/MCP-1,"LPS Huvec+PBMC, 4.57E0 nM",-0.00276
same,CD40,"LPS Huvec+PBMC, 4.57E0 nM",-0.174
same,CD62E/E-Selectin,"LPS Huvec+PBMC, 4.57E0 nM",-0.017
same,CD69,"LPS Huvec+PBMC, 4.57E0 nM",0.019
same,CD106/VCAM-1,"LPS Huvec+PBMC, 4.57E0 nM",0.051
same,CD141/Thrombomodulin,"LPS Huvec+PBMC, 4.57E0 nM",0.058
same,CD142/Tissue Factor,"LPS Huvec+PBMC, 4.57E0 nM",0.062
same,CXCL8/IL-8,"LPS Huvec+PBMC, 4.57E0 nM",-0.024
same,IL-1alpha,"LPS Huvec+PBMC, 4.57E0 nM",-0.00758
same,M-CSF,"LPS Huvec+PBMC, 4.57E0 nM",-0.005
same,SRB,"LPS Huvec+PBMC, 4.57E0 nM",-0.016
same,sPGE2,"LPS Huvec+PBMC, 4.57E0 nM",0.124
same,sTNF-alpha,"LPS Huvec+PBMC, 4.57E0 nM",-0.057
same,CCL2/MCP-1,"SAg, 1.00E4 nM",-0.077
same,CD38,"SAg, 1.00E4 nM",-0.031
same,CD40,"SAg, 1.00E4 nM",-0.104
same,CD62E/E-Selectin,"SAg, 1.00E4 nM",0.099
same,CD69,"SAg, 1.00E4 nM",0.140
same,CXCL8/IL-8,"SAg, 1.00E4 nM",-0.277
same,CXCL9/MIG,"SAg, 1.00E4 nM",-0.047
same,PBMC Cytotoxicity,"SAg, 1.00E4 nM",0.013
same,Proliferation,"SAg, 1.00E4 nM",-0.003
same,SRB,"SAg, 1.00E4 nM",-0.133
same,CCL2/MCP-1,"SAg, 1.11E3 nM",-0.125
same,CD38,"SAg, 1.11E3 nM",-0.063
same,CD40,"SAg, 1.11E3 nM",-0.103
same,CD62E/E-Selectin,"SAg, 1.11E3 nM",0.135
same,CD69,"SAg, 1.11E3 nM",0.166
same,CXCL8/IL-8,"SAg, 1.11E3 nM",-0.272
same,CXCL9/MIG,"SAg, 1.11E3 nM",-0.097
same,PBMC Cytotoxicity,"SAg, 1.11E3 nM",0.007
same,Proliferation,"SAg, 1.11E3 nM",-0.000932
same,SRB,"SAg, 1.11E3 nM",-0.168
same,CCL2/MCP-1,"SAg, 1.23E2 nM",-0.092
same,CD38,"SAg, 1.23E2 nM",-0.087
same,CD40,"SAg, 1.23E2 nM",-0.136
same,CD62E/E-Selectin,"SAg, 1.23E2 nM",0.130
same,CD69,"SAg, 1.23E2 nM",0.140
same,CXCL8/IL-8,"SAg, 1.23E2 nM",-0.108
same,CXCL9/MIG,"SAg, 1.23E2 nM",-0.076
same,PBMC Cytotoxicity,"SAg, 1.23E2 nM",-0.032
same,Proliferation,"SAg, 1.23E2 nM",0.030
same,SRB,"SAg, 1.23E2 nM",-0.149
same,CCL2/MCP-1,"SAg, 1.37E1 nM",-0.019
same,CD38,"SAg, 1.37E1 nM",-0.064
same,CD40,"SAg, 1.37E1 nM",-0.117
same,CD62E/E-Selectin,"SAg, 1.37E1 nM",0.101
same,CD69,"SAg, 1.37E1 nM",0.100
same,CXCL8/IL-8,"SAg, 1.37E1 nM",-0.060
same,CXCL9/MIG,"SAg, 1.37E1 nM",-0.029
same,PBMC Cytotoxicity,"SAg, 1.37E1 nM",0.005
same,Proliferation,"SAg, 1.37E1 nM",-0.021
same,SRB,"SAg, 1.37E1 nM",-0.058
same,CCL2/MCP-1,"SAg, 3.33E3 nM",-0.104
same,CD38,"SAg, 3.33E3 nM",-0.056
same,CD40,"SAg, 3.33E3 nM",-0.138
same,CD62E/E-Selectin,"SAg, 3.33E3 nM",0.125
same,CD69,"SAg, 3.33E3 nM",0.148
same,CXCL8/IL-8,"SAg, 3.33E3 nM",-0.259
same,CXCL9/MIG,"SAg, 3.33E3 nM",-0.085
same,PBMC Cytotoxicity,"SAg, 3.33E3 nM",-0.00278
same,Proliferation,"SAg, 3.33E3 nM",-0.016
same,SRB,"SAg, 3.33E3 nM",-0.179
same,CCL2/MCP-1,"SAg, 3.70E2 nM",-0.123
same,CD38,"SAg, 3.70E2 nM",-0.080
same,CD40,"SAg, 3.70E2 nM",-0.137
same,CD62E/E-Selectin,"SAg, 3.70E2 nM",0.119
same,CD69,"SAg, 3.70E2 nM",0.128
same,CXCL8/IL-8,"SAg, 3.70E2 nM",-0.284
same,CXCL9/MIG,"SAg, 3.70E2 nM",-0.085
same,PBMC Cytotoxicity,"SAg, 3.70E2 nM",-0.040
same,Proliferation,"SAg, 3.70E2 nM",-0.011
same,SRB,"SAg, 3.70E2 nM",-0.146
same,CCL2/MCP-1,"SAg, 4.12E1 nM",-0.056
same,CD38,"SAg, 4.12E1 nM",-0.062
same,CD40,"SAg, 4.12E1 nM",-0.124
same,CD62E/E-Selectin,"SAg, 4.12E1 nM",0.124
same,CD69,"SAg, 4.12E1 nM",0.126
same,CXCL8/IL-8,"SAg, 4.12E1 nM",-0.119
same,CXCL9/MIG,"SAg, 4.12E1 nM",-0.046
same,PBMC Cytotoxicity,"SAg, 4.12E1 nM",-0.001
same,Proliferation,"SAg, 4.12E1 nM",0.000938
same,SRB,"SAg, 4.12E1 nM",-0.102
same,CCL2/MCP-1,"SAg, 4.57E0 nM",0.040
same,CD38,"SAg, 4.57E0 nM",-0.052
same,CD40,"SAg, 4.57E0 nM",-0.084
same,CD62E/E-Selectin,"SAg, 4.57E0 nM",0.070
same,CD69,"SAg, 4.57E0 nM",0.062
same,CXCL8/IL-8,"SAg, 4.57E0 nM",0.007
same,CXCL9/MIG,"SAg, 4.57E0 nM",-0.031
same,PBMC Cytotoxicity,"SAg, 4.57E0 nM",0.015
same,Proliferation,"SAg, 4.57E0 nM",0.009
same,SRB,"SAg, 4.57E0 nM",0.029
